Data set [1] is described as follows: Solubility test (saturated solubility in water). As to conditions: 25±2° C. Format: physicochemical. As to the method: Test method: 10 mg of a test sample (solid was ground into fine powder) was weighed and added to a certain amount of solvent at 25±2° C. (the temperature of a water bath is controlled at 25° C.), and the solution was shaken vigorously for 30 s every 5 min. The dissolution was observed within 30 min. When there were no visible solute particles or droplets, the test sample was regarded as completely dissolved.

Data set [2] concerns ADP induced platelet aggregation. Description: In vitro anti-platelet aggregation, ADP induced (turbidimetry, PRP). The data set is classed as cell-based, rabbits. The conditions noted are these: read-out: IC50 ADP (10 μM); rabbit PRP, inducer ADP 10 μM, 37° C.
For data set [3], the system named is AA induced platelet aggregation. Kind of data set: In vitro anti-platelet aggregation, AA induced (turbidimetry, PRP). Format: cell-based, rabbits. The conditions noted are these: read-out: IC50 AA (1 mM); rabbit PRP, inducer AA 1 mM, 37° C.
The test system of data set [4] is arteriovenous bypass thrombosis in rats. Description: Effect on arteriovenous bypass thrombosis in rats. The data set is classed as in vivo, SD rats. The conditions noted are these: 10 mg/kg/day tail vein 7 days. Put shortly: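 Male SD rats (250-280 g) dosed 10 mg/kg/day i.v. (tail vein, saline with 1% DMSO) for 7 days, n=8; vehicle controls. Two hours after the last dose, under pentobarbital, a carotid–jugular shunt holding a weighed suture ran for 15 min; thrombus wet and dry (24 h air-dried) weights taken.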

The subject of another data set is MCAO rats. Description: Cerebral infarction, cerebral edema and nerve function of rats with focal cerebral ischemia (MCAO). The conditions noted are these: rat, in vivo, iv, 10 mg/kg/day. Format: in vivo, SD rats.
Data set [5] is described as follows: Pharmacokinetics of metabolites in rat plasma after intravenous injection of I1s. The data set is classed as in vivo, SD male rats. As to conditions: metabolite in rat plasma after I1s 25 mg/kg tail vein; rats 1-3; listed as M4. As to the method:
(§1) 12 clean SD male rats, provided by Qinglongshan Animal Breeding Farm in Jiangning District, Nanjing. The production license number is SCXK (Jiangsu) 2017-0001. The body weight of the rats ranges from 180 to 220 g. The rats were used after being raised in the laboratory of an experimental animal center for 2 days after purchase, fasted for 12 hours before administration and 6 hours after administration, and were allowed to freely drink during the test period.
(§2) The concentration of the original drugs and metabolites in the rat blood were determined by LC-MS/MS, and WinNonlin pharmacokinetics professional software and a statistical moment method were used for calculation to obtain the corresponding pharmacokinetic parameters.

Data set [6] can be described thus: Concentration of metabolites in rat brain tissue after intravenous injection of I1s. Format: in vivo. As to conditions: for Concentration in brain tissue (single rats): listed as M4. How it is done: as §1, §2
Assay in data set [7]: as above
The data set is classed as in vivo.

The target in data set [8] is hERG potassium channel of CHO-hERG cells (Homo sapiens, UniProt Q12809). Description: Effect on hERG potassium channel (automatic patch clamp). As to conditions: CHO-hERG cells, maximum concentration.
Where [9] appears, read: 0.5 h after intravenous injection of I1s.
[10] abbreviates: 1 h after intravenous injection of I1s.
Setting [11] is: 6 h after intravenous injection of I1s.

Molecules are shown by their SMILES. “And” between values parts separate entries of the source, which are not always exact repeats. Identical values can stand only once. Marks after values point to notes of the source that are not given here.

Sequence of hERG potassium channel of CHO-hERG cells (Q12809 whole entry): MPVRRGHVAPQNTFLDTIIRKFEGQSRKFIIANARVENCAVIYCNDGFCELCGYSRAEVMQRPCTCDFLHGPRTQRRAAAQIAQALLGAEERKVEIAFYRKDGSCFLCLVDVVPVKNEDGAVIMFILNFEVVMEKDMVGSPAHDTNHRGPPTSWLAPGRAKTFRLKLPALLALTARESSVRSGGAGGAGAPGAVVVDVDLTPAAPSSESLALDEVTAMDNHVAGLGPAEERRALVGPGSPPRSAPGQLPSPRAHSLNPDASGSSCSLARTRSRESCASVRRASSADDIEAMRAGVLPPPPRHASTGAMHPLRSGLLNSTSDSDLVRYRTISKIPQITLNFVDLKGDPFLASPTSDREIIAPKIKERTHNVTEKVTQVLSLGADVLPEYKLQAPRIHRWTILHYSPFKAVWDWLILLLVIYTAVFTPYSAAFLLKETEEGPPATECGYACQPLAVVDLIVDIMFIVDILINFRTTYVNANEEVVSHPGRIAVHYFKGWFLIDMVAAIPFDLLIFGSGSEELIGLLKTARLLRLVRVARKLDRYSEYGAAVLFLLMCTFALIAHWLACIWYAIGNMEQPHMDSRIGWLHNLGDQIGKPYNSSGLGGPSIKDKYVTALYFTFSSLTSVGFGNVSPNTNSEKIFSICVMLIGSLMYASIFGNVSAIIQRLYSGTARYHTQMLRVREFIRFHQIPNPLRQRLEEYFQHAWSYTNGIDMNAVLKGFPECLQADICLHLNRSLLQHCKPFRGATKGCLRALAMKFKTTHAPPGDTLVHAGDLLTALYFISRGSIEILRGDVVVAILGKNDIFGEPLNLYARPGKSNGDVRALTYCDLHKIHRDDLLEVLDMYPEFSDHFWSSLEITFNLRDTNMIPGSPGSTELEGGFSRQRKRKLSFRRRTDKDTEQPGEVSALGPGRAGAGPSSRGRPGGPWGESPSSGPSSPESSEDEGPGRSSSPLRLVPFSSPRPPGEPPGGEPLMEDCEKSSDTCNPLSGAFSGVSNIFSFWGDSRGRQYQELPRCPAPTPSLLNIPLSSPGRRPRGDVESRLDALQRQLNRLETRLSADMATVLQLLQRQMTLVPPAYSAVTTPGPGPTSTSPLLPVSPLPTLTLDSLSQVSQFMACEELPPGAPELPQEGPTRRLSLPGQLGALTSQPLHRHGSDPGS

Consider `CCCC[C@@H]1OC(=O)c2ccccc21` [(S)-NBP, (S)-butylphthalide], for which the “Saturated solubility in H2O, Mean” value in data set [1] was determined as 540 µg/mL. In addition, the IC50 – broadly, the concentration that gives 50% inhibition – in [2] was found to be 1290 ± 110 µM. In data set [3], the IC50 worked out at 500 ± 40 µM. Further, in data set [4] (2 h after last dose), the “Dry weight of thrombus” value is 7.44 ± 0.37 and the “Wet weight of thrombus” value came out at 24.18 ± 1.02. Besides, in [4] (vs model group), the “Inhibition rate (dry weight of thrombus)” value is on record as 25.95^## % and the “Inhibition rate (wet weight of thrombus)” value is 33.24^## %. Besides, in the data set on MCAO rats, the Cerebral edema amounted to 4.45 ± 4.58%, the Infarct volume is 14.18 ± 2.69%, the “Inhibition rate of cerebral edema” value was 72.28% and the “Inhibition rate of infarct volume” value was 66.12%. Also, in data set [5], the AUC(0-t) (usually exposure summed from dosing to a finite time, without extrapolation to infinity) was 32828.9 ng·h/mL and 40061.1 ng·h/mL and 34160.8 ng·h/mL; the “AUC(0-∞)” value was 32988.3 ng·h/mL and 40153.8 ng·h/mL and 34287.8 ng·h/mL; the Cl is 12.631 mL/min/kg and 10.377 mL/min/kg and 12.152 mL/min/kg; the Cmax (in general, the maximum level reached in the sampled fluid or tissue) is 52.5136 µg/mL and 69.7952 µg/mL and 65.7002 µg/mL. Besides, the Vz (in general, a proportionality between amount in the body and measured concentration, not a real space) in data set [5] was 3.704 L/kg and 2.6838 L/kg and 3.6105 L/kg. Besides, the “Concentration in brain tissue (single rats)” value (shortened to “Concentration … (single rats)”) in data set [6] (setting [9]) was 556.35 ng/g and 627.76 ng/g and 633.25 ng/g. Further, the “Concentration … (single rats)” value in [6] (setting [10]) is 131.66 ng/g and 119.84 ng/g and 388.42* ng/g. The “Concentration … (single rats)” value in data set [6] (setting [11]) is 27.06 ng/g and 30.85 ng/g and 51.78 ng/g. In addition, the “Passage through the blood-brain barrier” value in data set [6] (detected in rat brain tissue after iv I1s) is reported as “could all pass through the blood-brain barrier”. Further, the “Concentration in brain tissue, Mean” value in [7] (setting [9]) stood at 605.79 ng/g. In data set [7] (setting [10]), the “Concentration in brain tissue, Mean” value came out at 125.75 ng/g. In addition, in data set [7] (setting [11]), the “Concentration in brain tissue, Mean” value is on record as 36.56 ng/g. Besides, the “inhibition rate of hERG potassium channel at the maximum concentration” value in data set [8] was 41.45%.

Values taken from patent publication US11814352B2, “Salts formed by 2-(1-acyloxy-n-pentyl) benzoic acid and basic amino acid or aminoguanidine, and preparation method and application thereof” (JIANGSU KANION PHARMACEUTICAL CO., LTD., priority 2018, dated 2023).
